The results in this text go back to US20240182461A1, “SELECTIVE ANGIOTENSIN II RECEPTOR LIGANDS” (priority 2021, published 2024).

Each structure is given as a SMILES string. Where two headings read alike, the source gives them in different places.

Format in all cases: in vitro ADME
One series concerns the target T1, CYP1A (Homo sapiens, UniProt P05177).
T1 construct: incubated with human liver microsomes; from tissue; host or cells: human liver microsomes
The series is described as follows: CYP inhibition in human liver microsomes, CYP1A. The note with it: probe phenacetin, substrate phenacetin, read-out: CYP1A Inh %. On the technique in general: Liver microsomes are vesicles of endoplasmic reticulum, rich in cytochrome P450 enzymes.

The target in a further series is CYP2C9 (Homo sapiens, UniProt P11712). The series is described as follows: CYP inhibition in human liver microsomes, CYP2C9. Also on record: incubated with human liver microsomes; from tissue; host or cells: human liver microsomes. The note with it: probe diclofenac, substrate diclofenac, read-out: CYP2C9 Inh %.
Sequence of CYP2C9 (P11712 whole entry): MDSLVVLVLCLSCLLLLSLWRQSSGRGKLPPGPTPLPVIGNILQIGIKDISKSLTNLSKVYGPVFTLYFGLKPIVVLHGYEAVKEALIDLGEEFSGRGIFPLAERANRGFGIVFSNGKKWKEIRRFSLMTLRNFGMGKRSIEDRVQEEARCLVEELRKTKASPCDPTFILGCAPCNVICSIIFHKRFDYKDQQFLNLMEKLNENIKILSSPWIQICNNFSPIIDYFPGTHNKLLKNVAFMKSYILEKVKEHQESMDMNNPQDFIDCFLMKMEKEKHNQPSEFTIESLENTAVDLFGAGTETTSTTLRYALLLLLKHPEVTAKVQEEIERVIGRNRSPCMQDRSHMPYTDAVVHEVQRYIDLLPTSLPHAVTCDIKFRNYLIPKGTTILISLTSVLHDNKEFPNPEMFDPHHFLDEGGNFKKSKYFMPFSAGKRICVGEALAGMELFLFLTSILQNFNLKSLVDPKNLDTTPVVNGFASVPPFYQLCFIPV
In the next series the test system is CYP3A4&5. The series can be described thus: CYP inhibition in human liver microsomes, CYP3A4&5 testosterone. The note with it: probe testosterone, substrate testosterone, read-out: CYP3A4&5 testosterone Inh %.
The target in a further series is T2, CYP2B6 (Homo sapiens, UniProt P20813).
T2 construct: incubated with human liver microsomes; from tissue; host or cells: human liver microsomes
T2 sequence (P20813 1-491): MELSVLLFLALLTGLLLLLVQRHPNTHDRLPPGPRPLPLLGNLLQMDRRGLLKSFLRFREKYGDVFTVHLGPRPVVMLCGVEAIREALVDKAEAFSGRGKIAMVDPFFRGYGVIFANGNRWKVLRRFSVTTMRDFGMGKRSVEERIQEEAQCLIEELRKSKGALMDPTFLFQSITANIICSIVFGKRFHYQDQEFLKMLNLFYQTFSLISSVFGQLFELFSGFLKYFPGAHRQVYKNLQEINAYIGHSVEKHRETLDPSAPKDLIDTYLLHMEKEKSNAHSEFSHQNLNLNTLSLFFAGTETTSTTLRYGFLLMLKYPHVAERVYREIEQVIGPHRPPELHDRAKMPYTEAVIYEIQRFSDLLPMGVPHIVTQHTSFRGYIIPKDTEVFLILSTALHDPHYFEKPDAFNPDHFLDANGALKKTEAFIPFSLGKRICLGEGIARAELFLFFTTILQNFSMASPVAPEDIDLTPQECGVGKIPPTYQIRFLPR
The series can be described thus: CYP inhibition in human liver microsomes, CYP2B6. The note with it: probe bupropion, substrate bupropion, read-out: CYP2B6 Inh %.

A further series concerns the target T3, CYP2C19 (Homo sapiens, UniProt P33261).
T3 construct: incubated with human liver microsomes; from tissue; host or cells: human liver microsomes
The series is described as follows: CYP inhibition in human liver microsomes, CYP2C19. The note with it: probe omeprazole, substrate omeprazole, read-out: CYP2C19 Inh %.

Series [1] can be described thus: Metabolic stability in pooled human liver microsomes. The note with it: human liver microsomes 0.5 mg/mL, 1 μM compound, 37° C.
The target of another series is T4, CYP2D6 (Homo sapiens, UniProt P10635).
T4 construct: incubated with human liver microsomes; from tissue; host or cells: human liver microsomes
T4 sequence (P10635 whole entry): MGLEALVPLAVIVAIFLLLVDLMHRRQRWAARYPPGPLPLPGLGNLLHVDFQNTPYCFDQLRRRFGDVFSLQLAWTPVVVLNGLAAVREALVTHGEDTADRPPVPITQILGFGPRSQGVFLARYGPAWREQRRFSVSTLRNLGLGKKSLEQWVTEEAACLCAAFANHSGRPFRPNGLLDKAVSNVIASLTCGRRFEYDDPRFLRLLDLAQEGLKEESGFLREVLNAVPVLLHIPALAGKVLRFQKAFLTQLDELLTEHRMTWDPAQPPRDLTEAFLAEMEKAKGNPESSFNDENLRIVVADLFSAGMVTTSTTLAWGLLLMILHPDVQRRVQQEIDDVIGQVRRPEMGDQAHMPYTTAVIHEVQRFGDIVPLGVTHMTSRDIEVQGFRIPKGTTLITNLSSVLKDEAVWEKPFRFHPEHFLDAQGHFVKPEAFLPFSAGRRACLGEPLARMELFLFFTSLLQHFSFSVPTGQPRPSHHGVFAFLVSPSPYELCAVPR
The series can be described thus: CYP inhibition in human liver microsomes, CYP2D6. The note with it: probe dextromethorphan, substrate dextromethorphan, read-out: CYP2D6 Inh %.

In another series the target is CYP3A4 (Homo sapiens, UniProt P08684). The series is described as follows: CYP inhibition in human liver microsomes, CYP3A4 midazolam. The note with it: probe midazolam, substrate midazolam, read-out: CYP3A4 midazolam Inh %. Set-up: incubated with human liver microsomes; from tissue; host or cells: human liver microsomes.
Sequence of CYP3A4 (P08684 whole entry): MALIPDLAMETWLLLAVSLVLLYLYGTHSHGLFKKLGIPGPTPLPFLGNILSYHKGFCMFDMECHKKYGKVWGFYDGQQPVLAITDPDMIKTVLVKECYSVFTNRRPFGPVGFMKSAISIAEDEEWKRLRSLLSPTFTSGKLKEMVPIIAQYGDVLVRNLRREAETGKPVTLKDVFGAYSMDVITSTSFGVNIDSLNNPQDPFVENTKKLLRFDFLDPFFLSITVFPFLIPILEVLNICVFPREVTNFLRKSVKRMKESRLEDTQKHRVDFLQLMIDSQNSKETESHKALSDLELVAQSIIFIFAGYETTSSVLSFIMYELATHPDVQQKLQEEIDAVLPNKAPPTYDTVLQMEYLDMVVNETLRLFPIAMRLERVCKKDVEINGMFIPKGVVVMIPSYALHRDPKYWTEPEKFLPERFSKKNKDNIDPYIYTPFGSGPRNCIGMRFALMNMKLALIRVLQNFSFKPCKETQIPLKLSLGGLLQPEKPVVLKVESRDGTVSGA
In a further series the target is T5, CYP2C8 (Homo sapiens, UniProt P10632).
T5 construct: incubated with human liver microsomes; from tissue; host or cells: human liver microsomes
T5 sequence (P10632 1-490): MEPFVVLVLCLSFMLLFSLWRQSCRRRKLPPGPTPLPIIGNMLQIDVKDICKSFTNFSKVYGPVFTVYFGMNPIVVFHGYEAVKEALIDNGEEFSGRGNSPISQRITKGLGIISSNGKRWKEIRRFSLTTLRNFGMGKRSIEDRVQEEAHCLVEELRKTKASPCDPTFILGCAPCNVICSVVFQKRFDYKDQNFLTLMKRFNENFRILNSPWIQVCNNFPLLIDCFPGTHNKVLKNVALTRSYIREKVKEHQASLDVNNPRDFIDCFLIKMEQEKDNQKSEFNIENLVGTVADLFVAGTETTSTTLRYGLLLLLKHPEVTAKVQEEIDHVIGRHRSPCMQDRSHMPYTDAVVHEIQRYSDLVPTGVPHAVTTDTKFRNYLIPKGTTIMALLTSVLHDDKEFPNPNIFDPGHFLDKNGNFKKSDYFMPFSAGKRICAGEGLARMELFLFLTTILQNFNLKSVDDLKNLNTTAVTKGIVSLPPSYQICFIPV
The series is described as follows: CYP inhibition in human liver microsomes, CYP2C8. The note with it: probe paclitaxel and amodiaquine, substrates paclitaxel and amodiaquine, read-out: CYP2C8 Inh %.

The mark [2] stands for this setting: with 1 mM NADPH, read-out: T1/2, + NaDPH.
[3] abbreviates: without NADPH, read-out: T1/2, no NaDPH.

T1 sequence (P05177 whole entry): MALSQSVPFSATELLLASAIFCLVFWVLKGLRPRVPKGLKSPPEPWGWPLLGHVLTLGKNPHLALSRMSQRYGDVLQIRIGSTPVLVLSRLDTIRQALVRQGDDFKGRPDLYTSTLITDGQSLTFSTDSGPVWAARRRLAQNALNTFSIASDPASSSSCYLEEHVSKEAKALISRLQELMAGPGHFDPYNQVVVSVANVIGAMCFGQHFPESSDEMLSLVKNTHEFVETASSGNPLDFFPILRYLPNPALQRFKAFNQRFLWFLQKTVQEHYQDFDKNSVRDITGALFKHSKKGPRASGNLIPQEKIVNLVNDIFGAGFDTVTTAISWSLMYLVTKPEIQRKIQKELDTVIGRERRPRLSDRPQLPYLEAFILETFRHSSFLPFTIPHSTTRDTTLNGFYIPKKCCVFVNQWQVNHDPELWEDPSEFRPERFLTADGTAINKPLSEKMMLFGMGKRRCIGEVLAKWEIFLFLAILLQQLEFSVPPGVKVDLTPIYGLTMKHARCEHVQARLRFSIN
T3 sequence (P33261 whole entry): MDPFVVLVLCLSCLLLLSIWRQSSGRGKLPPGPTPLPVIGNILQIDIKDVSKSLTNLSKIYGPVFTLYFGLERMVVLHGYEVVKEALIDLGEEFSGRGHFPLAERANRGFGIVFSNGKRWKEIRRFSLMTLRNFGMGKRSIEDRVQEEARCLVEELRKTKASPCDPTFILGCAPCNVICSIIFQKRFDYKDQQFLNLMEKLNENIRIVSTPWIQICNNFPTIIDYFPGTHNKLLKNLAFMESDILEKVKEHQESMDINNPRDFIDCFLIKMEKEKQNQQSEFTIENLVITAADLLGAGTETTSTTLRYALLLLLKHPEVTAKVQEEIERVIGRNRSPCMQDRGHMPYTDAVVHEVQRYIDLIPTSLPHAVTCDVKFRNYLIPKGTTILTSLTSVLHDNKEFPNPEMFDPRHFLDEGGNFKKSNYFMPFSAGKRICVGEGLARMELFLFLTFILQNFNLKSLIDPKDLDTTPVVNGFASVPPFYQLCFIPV

For the molecule `CCc1nccn1Cc1ccc(-c2cc(CC(C)C)ccc2S(=O)(=O)NC(=O)OC)cc1F` [Example 15, Methyl ((4′-((2-ethyl-1H-imidazol-1-yl)methyl)-3′-fluoro-5-isobutyl-[1,1′-biphenyl]-2-yl)sulfonyl)carbamate], the inhibition at 10 µM on CYP1A was 7%; on CYP2C9, 59.6%; in the series on CYP3A4&5 it was 18.4%; on CYP2B6, 16.1%; on CYP2C19, 21.5%; on CYP2D6, 2.2%. Also, the results for the inhibition at 10 µM at CYP3A4 and on CYP2C8 were -5.3% and 52.4%, respectively. For the same molecule, the half-life at 1 μM in series [1] (setting [2]) and in series [1] (setting [3]) was greater than 60 min throughout.

`CCCCOC(=O)NS(=O)(=O)c1ccc(CC(C)C)cc1-c1ccc(Cn2ccnc2C)c(F)c1` [Example 10, Butyl ((3′-fluoro-5-isobutyl-4′-((2-methyl-1H-imidazol-1-yl)methyl)-[1,1′-biphenyl]-2-yl)sulfonyl)carbamate]: the inhibition at 10 µM at CYP1A was 3.2%; at CYP2C9, 68.6%; in the series with CYP3A4&5, 24.5%; on CYP2B6, 31.8%; at CYP2C19 it was 54.9%; on CYP2D6, -12.9%. The inhibition at 10 µM at CYP3A4 came to 11.5%; on CYP2C8, 46.9%. The results for the half-life at 1 μM in [1] (setting [2]) and in [1] (setting [3]) were 32 min and 35 min, respectively.

For `CCOC(=O)NS(=O)(=O)c1ccc(CC(C)C)cc1-c1ccc(Cn2ccnc2C(C)(C)C)c(F)c1` [Example 6, Ethyl ((4′-((2-(tert-butyl)-1H-imidazol-1-yl)methyl)-3′-fluoro-5-isobutyl-[1,1′-biphenyl]-2-yl)sulfonyl)carbamate], the inhibition at 10 µM was 8.6% on CYP1A; 72.2% at CYP2C9; 31% in the series on CYP3A4&5; 26.4% on CYP2B6; 49.3% on CYP2C19; 33.1% on CYP2D6. Moreover, the inhibition at 10 µM on CYP3A4 amounted to 19.9%; at CYP2C8, 53%. Further, the half-life at 1 μM was determined as 12 min in [1] (setting [2]) and 14 min in series [1] (setting [3]).

Take `CCCCOC(=O)NS(=O)(=O)c1ccc(CC(C)C)cc1-c1ccc(Cn2ccnc2CC)c(F)c1` [Example 11, Butyl ((4′-((2-ethyl-1H-imidazol-1-yl)methyl)-3′-fluoro-5-isobutyl-[1,1′-biphenyl]-2-yl)sulfonyl)carbamate]: the inhibition at 10 µM was determined as 4.3% at CYP1A; 81.3% on CYP2C9; 30.5% in the series with CYP3A4&5; 35% on CYP2B6; 59.3% at CYP2C19; 0.3% at CYP2D6. Moreover, the inhibition at 10 µM at CYP3A4 turned out to be 5.6%; on CYP2C8 it was 61.3%. Moreover, the half-life at 1 μM in [1] (setting [2]) and in [1] (setting [3]) was 26 min throughout.

As for `COC(=O)NS(=O)(=O)c1ccc(CC(C)C)cc1-c1ccc(Cn2ccnc2C(C)(C)C)c(F)c1` [Example 5, Methyl ((4′-((2-(tert-butyl)-1H-imidazol-1-yl)methyl)-3′-fluoro-5-isobutyl-[1,1′-biphenyl]-2-yl)sulfonyl)carbamate], the inhibition at 10 µM on CYP1A is -13.1%; at CYP2C9, 72%; in the series on CYP3A4&5 it was 15.1%; on CYP2B6, 26.2%; on CYP2C19 it was 34.4%; at CYP2D6 it was 17.7%. The inhibition at 10 µM is 3.8% at CYP3A4 and 87.9% on CYP2C8. For the same molecule, the half-life at 1 μM in series [1] (setting [2]) and in series [1] (setting [3]) was greater than 60 min throughout.

For the molecule `CCOC(=O)NS(=O)(=O)c1ccc(CC(C)C)cc1-c1ccc(Cn2ccnc2C)c(F)c1` [Example 12, Ethyl ((3′-fluoro-5-isobutyl-4′-((2-methyl-1H-imidazol-1-yl)methyl)-[1,1′-biphenyl]-2-yl)sulfonyl)carbamate], the inhibition at 10 µM on CYP1A turned out to be 5.9%; at CYP2C9, 52.6%; with CYP3A4&5, 12.6%; at CYP2B6, 18.9%; on CYP2C19 it was 50.7%; on CYP2D6, 2.9%. Moreover, the inhibition at 10 µM at CYP3A4 was determined as 8.6%; at CYP2C8 it was 39.7%. In addition, the half-life at 1 μM is greater than 60 min in [1] (setting [2]) and 50 min in [1] (setting [3]).

As to `COC(=O)NS(=O)(=O)c1ccc(CC(C)C)cc1-c1ccc(Cn2ccnc2C(C)C)c(F)c1` [Example 9, Methyl ((3′-fluoro-5-isobutyl-4′-((2-isopropyl-1H-imidazol-1-yl)methyl)-[1,1′-biphenyl]-2-yl)sulfonyl)carbamate], the inhibition at 10 µM is 2.5% at CYP1A; 37.9% at CYP2C9; 17.5% in the series with CYP3A4&5; 28.2% at CYP2B6; 27.2% at CYP2C19; -2.4% at CYP2D6. Moreover, the inhibition at 10 µM was -4.9% on CYP3A4 and 77.2% at CYP2C8. Besides, the half-life at 1 μM in series [1] (setting [2]) and in [1] (setting [3]) was greater than 60 min in each case.

As for `COC(=O)NS(=O)(=O)c1ccc(CC(C)C)cc1-c1ccc(Cn2ccnc2C)c(F)c1` [Example 13, Methyl ((3′-fluoro-5-isobutyl-4′-((2-methyl-1H-imidazol-1-yl)methyl)-[1,1′-biphenyl]-2-yl)sulfonyl)carbamate], the inhibition at 10 µM at CYP1A is 7.6%; at CYP2C9, 32.3%; with CYP3A4&5, 14.5%; at CYP2B6, 18.4%; at CYP2C19, 24.6%; at CYP2D6, -0.8%. Besides, the inhibition at 10 µM at CYP3A4 was 9.3%; on CYP2C8, 27.7%. The half-life at 1 μM in series [1] (setting [2]) and in series [1] (setting [3]) was greater than 60 min each time.

For the molecule `CC(C)Cc1ccc(S(=O)(=O)NC(=O)OCCO)c(-c2ccc(Cn3ccnc3C(C)(C)C)cc2)c1` [Example 16, 2-Hydroxyethyl (4′-((2-(tert-butyl)-1H-imidazol-1-yl)methyl)-5-isobutyl-[1,1′-biphenyl]-2-yl)sulfonylcarbamate], the half-life at 1 μM in series [1] (setting [2]) and in series [1] (setting [3]) was greater than 60 min throughout.

As for `CCCCOC(=O)NS(=O)(=O)c1ccc(CC(C)C)cc1-c1ccc(Cn2ccnc2C(C)C)c(F)c1` [Example 7, Butyl ((3′-fluoro-5-isobutyl-4′-((2-isopropyl-1H-imidazol-1-yl)methyl)-[1,1′-biphenyl]-2-yl)sulfonyl)carbamate], the inhibition at 10 µM on CYP1A is 6.3%; on CYP2C9, 80.7%; in the series on CYP3A4&5 it was 29.7%; on CYP2B6 it was 52.2%; on CYP2C19, 59.3%; on CYP2D6, -4.1%. Moreover, the inhibition at 10 µM on CYP3A4 was 9.7%; on CYP2C8, 73.9%. The half-life at 1 μM was 18 min in series [1] (setting [2]) and 20 min in series [1] (setting [3]).
